Results from US20170327827A1, “ADIPOCYTE-SPECIFIC CONSTRUCTS AND METHODS FOR INHIBITING PLATELET-TYPE 12 LIPOXYGENASE EXPRESSION” (The Medical Research, Infrastructure, and Health Services …, priority 2006, published 2017).
Entries after “also recorded” stand apart in the source; their conditions may differ.

Columns and labels:
Format in all cases: cell-based, murine
[1] = test system: 3T3-L1 cells; assay: G418 selection kill level; conditions: 600 μg/ml G418 over two weeks
Experimental: 600 μg/ml is enough G418 to kill 100% 3T3-L1 cells over 2 weeks. Thus the levels used clearly distinguish between cells that incorporated G418 resistance (within the expression plasmid used) into their genomes and cells lacking this marker. A few passages after G418 release stable populations should recover and fill the plate.
The Fugene6 protocol was then used again for preparation of 12Lo antisense knockout and control clones together with the G418 selection marker as G418 resistance was built in to the pCDNA3.1 plasmid (see FIGS. 2A-2D). It was herein determined that 600 μg/ml G418 killed 100% of 3T3-L1 cells over two weeks. So on transfection of cells and selection with 650 μg/ml G418 over three weeks only those cells expressing strong […] resistance would survive and grow. Following three weeks of selection G418 release was gradual over the next 1-2 weeks.

[2] = test system: 3T3-L1 stable cell lines; assay: Necrosis by lactate dehydrogenase (LDH) release
Experimental: Lactate Dehydrogenase Release (LDH): Necrotic cells release their cytoplasmic contents into the surrounding medium. In recent years the measurement of one such stable enzyme, LDH, has become a standard laboratory marker of necrosis (Goeptar et al., 1994; Moran et al., 1996). Cell cultures and treatments tested for LDH release had their supernatants collected, centrifuged (1,100×g, 5 minutes; to remove particulate debris) and supernatants tested automatically in a centralized facility (in-house) by method of Moran and Schnellmann (Moran et al., 1996), 1996. In each study a positive control for LDH release was a 1/5000 dilution of triton X100 directly into the cell culture, for the period of the bioassay. Negative control was medium without cells.
Cell death can occur as a result of different processes: apoptosis, which is a very programmed process, as well as other less programmed mechanisms such as necrosis. […] In recent years, investigators have been measuring the release of lactate dehydrogenase (LDH) from cells as a measure of cellular necrosis. The contribution of necrosis in the cell death of the 12Lo reduced expressing clones was thus examined by comparing LDH release from control and pCMV600a 12Lo antisense knockout stable preadipocyte cell lines grown in the presence or absence of 12-HETE. In FIG. 15, typical data of such a study is presented.

[3] = test system: 3T3-L1 cells; assay: Basal cell death of stable 12Lo antisense knockout populations and clones (trypan blue)
[4] = test system: 3T3-L1 cells; assay: DNA fragmentation (Roche Cell Death Detection ELISA) in stable knockout populations and clones; conditions: 10^−7M
Experimental: DNA Fragmentation (ELISA method): Apoptopic cells show hallmark random DNA fragmentation between nucleosomes. The “Cell Death Detection ELISA” format by Roche (Mannheim, Germany) was used in the following examples. Culture treatments and controls were performed for the tested period and after counting the cells and washing them twice with PBS, 250,000 cells/aliquot were prepared and stored dry at −180° C. until assay. Multiple replicates were usually prepared for assay together on the same day in the same kit. Assay was carried out exactly as described by the manufacturer on 250,000 cells/aliquot.
One hallmark of apoptosis is DNA fragmentation. In the current studies the Roche (Mannheim, Germany) version of this assay was used in the format of an ELISA assay, which measures released intact DNA/Histone-nucleosomes. The results are presented as antisense knockout levels normalized to parallel control values. In the experiment shown in FIGS. 10A-10B, populations of 3T3-L1 cells with either of the two 12Lo antisense knockout plasmids (“mp”-pCMV5′mp12Lo(Pst1)-A; “600a”-pcDNAh60012LoA) versus controls (“Con”) were directly compared: cell death versus relative DNA fragmentation.
To further validate the mechanism of cell death the Roche Cell Death kit was applied as a measure of DNA fragmentation, which is a classic apoptopic hallmark. […]

Row | Structure (SMILES) | 3T3-L1 cells killed [1] | effect of 12-HETE on cell necrosis (LDH release) [2] | effect of added 12-HETE on cell death of 12Lo antisense knockout clones ([3]; 12-HETE 10^−7 M) | effect of 12-HETE on cell survival of control clone ([3]; pCMVCAT stably transfected 3T3-L1 cells, 10^−7M) | effect of 12-HETE on DNA fragmentation levels ([4]; each of the pCMV600a clonal stable lines) | DNA fragmentation level on supplemented 12-HETE ([4]; pCMV600a clone 10)
1 | CN[C@@H]1[C@@H](O)[C@@H](O[C@@H]2[C@@H](O)[C@H](O[C@H]3O[C@H]([C@@H](C)O)[C@@H](O)[C@H](O)[C@H]3N)[C@@H](N)C[C@H]2N)OC[C@]1(C)O [G418] | 100% | – | – | – | – | –
2 | CCCCC/C=C\C[C@@H](O)/C=C/C=C\C/C=C\CCCC(=O)O [12-HETE, 12 hydroxyeicosatetraenoic acid] | – | no effect | much less cell death; also recorded: encouraged cell survival | no effect | reduced the DNA fragmentation levels | nearly “normal” (or control) levels
